SMILES strings stand for the structures.

One may read the melting point as the temperature, or range, at which the solid turns liquid.

For the compound `Nc1ccc(-c2cn3cccnc3n2)cc1`, the melting point was 251 to 253 °C.

Consider `O=c1ccc(-c2ccc3c(c2)OCCCO3)n[nH]1`, for which the melting point is 199 to 201 °C.

`c1cnc2c(c1)NCCCN2` showed a melting point of 84 to 86 °C.

The compound `NC(=O)C1CNCCN1` (configuration not stated) registered a melting point of 142 to 144 °C.

Compound `Cc1ccc2[nH]cc(C(=O)O)c2c1` displayed a melting point of 183 to 185 °C.

`Nc1cccc2c1C(=O)NC2=O`: the melting point was 268 to 270 °C.

Turning to `COc1cc(C)cc2c(C)c(C(=O)O)oc12`, the melting point is 239 to 241 °C.

Turning to `CC(C)c1ccc2c(c1)[C@@H](O)CCC2`, the melting point was 89 to 91 °C.

`O=C(O)c1ccc(OCC(F)(F)C(F)F)nc1`: the melting point is 143 to 145 °C.

In turn, `ClCc1nc(-c2ccoc2)no1` had a melting point of 50 to 52 °C.

As to `COCCC(=O)Nc1ccc(F)cc1C(=O)O`, the melting point was in the range of 110 to 112 °C.

Consider `Cc1[nH]c2ccccc2c(=O)c1C(C)C`, for which the melting point was 299 to 301 °C.

`CC(C)c1cc(C(=O)O)c2cnn(C(C)C)c2n1` came in with a melting point of 144 to 146 °C.

Consider `CCN1C(=O)NC(C)C1=O` (configuration not stated), for which the melting point lay within 51 to 53 °C.

Take `Clc1cn[nH]c1`: the melting point was in the range of 65 to 67 °C.

As for `CC(C)NS(=O)(=O)c1ccc(C(=O)O)cc1`, the melting point lay within 225 to 227 °C.

In the case of `CNC(=O)c1cnc(C)[nH]c1=O`, the melting point was 319 to 321 °C.

`CN1CCN(CCc2ccc(N)cc2)CC1`: the melting point fell in the range of 64 to 66 °C.

For the compound `C#Cc1cccc(NCC(=O)N2CCOCC2)c1`, the melting point was 185 to 187 °C.

`Cc1sc2nc(-c3ccccn3)nc(Cl)c2c1-c1ccccc1`: the melting point fell in the range of 166 to 168 °C.

`Cc1cc(=O)[nH]c(-c2ccc(N)cc2)n1`: the melting point was in the range of 222 to 224 °C.

Consider `O=C(O)C1(O)CCCCC1`, for which the melting point is 102 to 104 °C.

Regarding `CN(C(=O)c1ccc(Cl)cc1)c1ccc(O)cc1`, the melting point was in the range of 205 to 207 °C.

Take `CC(=O)c1ccc(-c2ccc(Cl)cc2)s1`: the melting point is 120 to 122 °C.

Compound `Cc1nn(-c2ccc(Cl)c(Cl)c2)c(C)c1CC(=O)O` showed a melting point of 140 to 142 °C.

Consider `Cc1ccc(C)n1-c1ccc(CN)cc1`, for which the melting point fell in the range of 61 to 63 °C.

As for `COc1ncnc(N)c1C=O`, the melting point lay within 197 to 199 °C.

In turn, `Cc1nc(N2CCCC2)[nH]c(=O)c1CC(=O)O` gave a melting point of 262 to 264 °C.

For the compound `COc1ccc(Br)c2[nH]c(C(=O)O)cc12`, the melting point lay in the range of 246 to 248 °C.

`Cc1ccc(C#N)c(N2CCCC2)n1` registered a melting point of 74 to 76 °C.

`O=C(O)c1cnoc1-c1ccccc1`: the melting point was in the range of 149 to 151 °C.

Compound `O/N=C1\CCN2CCCCC12` (configuration not stated) had a melting point of 96 to 98 °C.

The compound `C1CCc2nnc(CN3CCNCC3)n2CC1` had a melting point of 158 to 162 °C.

In the case of `O=C1CC2(CCSC2)C(=O)N1` (configuration not stated), the melting point is 135 to 137 °C.

`CCNC(=O)NC(=O)CN(C)Cc1ccccc1` displayed a melting point of 62 to 64 °C.

In turn, `Nc1nc(-c2c(F)cccc2F)cs1` returned a melting point of 179 to 181 °C.

Regarding `O=C(O)c1cc([N+](=O)[O-])cn1Cc1sccc1Br`, the melting point is 190 to 192 °C.

As for `C=CCNc1nc2c(s1)CCCC2`, the melting point lay within 77 to 79 °C.

In turn, `Nc1c(-c2cccnc2)nc2ccccn12` registered a melting point of 179 to 181 °C.

`Cc1ccc(S(=O)(=O)CC(C)O)cc1` (configuration not stated): the melting point is 76 to 78 °C.

The compound `c1ccc(-c2cn[nH]c2)cc1` displayed a melting point of 229 to 231 °C.

Compound `c1cc(-c2ncc[nH]2)ccn1` yielded a melting point of 208 to 210 °C.

The compound `N#Cc1ccc(CBr)c(F)c1` registered a melting point of 75 to 77 °C.

Compound `CC(=O)c1ccc(C(F)(F)C(=O)O)n1C` displayed a melting point of 115 to 117 °C.

Consider `Nc1oncc1-c1ccccc1`, for which the melting point lay within 97 to 99 °C.

`Cc1cccc2c(CCC(=O)O)c[nH]c12` yielded a melting point of 149 to 151 °C.

Take `Nc1ccccc1NC(=O)Cc1cccs1`: the melting point fell in the range of 163 to 165 °C.

`Cc1cccnc1NC(=O)C1CCNCC1` registered a melting point of 136 to 138 °C.

Take `COC(=O)c1cc(Br)cc(S(=O)(=O)Cl)c1`: the melting point is 59 to 61 °C.

As for `CC(C)c1ccc2c(c1)C(=O)C(=O)N2`, the melting point lay within 93 to 95 °C.

As to `O=C(O)c1cc([N+](=O)[O-])c2nsnc2c1`, the melting point fell in the range of 199 to 201 °C.

With `N#Cc1ncn(CC(=O)O)n1`, the melting point was 96 to 98 °C.

As for `Nc1cnn(CC(=O)NCCO)c1`, the melting point is 98 to 100 °C.

In the case of `Nc1nnc(-c2ccccn2)[nH]1`, the melting point was in the range of 199 to 201 °C.

Turning to `O=C(O)CCS(=O)(=O)Cc1cccc(Br)c1`, the melting point lay in the range of 156 to 158 °C.

Regarding `O=C(O)CNC(=O)c1cc2ccccc2[nH]1`, the melting point lay within 231 to 233 °C.

In turn, `Cc1ccc(S(=O)(=O)Nc2ccc(O)cc2)s1` had a melting point of 106 to 108 °C.

In turn, `CNC(=O)c1c(C)cccc1N` registered a melting point of 109 to 111 °C.

Consider `O=C(O)CCNS(=O)(=O)c1ccccc1`, for which the melting point fell in the range of 110 to 114 °C.

In the case of `O=C(O)c1ncoc1-c1cccc(F)c1`, the melting point fell in the range of 169 to 171 °C.

The compound `COc1cccc(C(C=O)C=O)c1` registered a melting point of 62 to 64 °C.

The compound `CC(C(=O)O)=C1CCCC1` registered a melting point of 107 to 109 °C.

Compound `CC(NC(=O)CNC(=O)CCl)c1ccc(F)cc1` (configuration not stated) came in with a melting point of 137 to 139 °C.

Compound `CC(Cl)C(=O)Nc1cccc(C#N)c1` (configuration not stated) gave a melting point of 108 to 110 °C.

Turning to `Cc1cc(C)n2nc(C)c(C(=O)O)c2n1`, the melting point is 226 to 228 °C.

`Cc1cc([N+](=O)[O-])n[nH]1` came in with a melting point of 153 to 155 °C.

For `NCc1cc2c(cc1OC(F)F)OCO2`, the melting point lay within 39 to 41 °C.

The compound `CCCOc1ccc2c(c1)OCC(C(=O)O)=C2` had a melting point of 178 to 180 °C.

For the compound `Cc1cc(C)c(S(=O)(=O)Cl)c(C)c1NS(C)(=O)=O`, the melting point was 175 to 177 °C.

For the compound `Nc1cc(-c2ccco2)ccc1F`, the melting point was 40 to 42 °C.

`CCOC(=O)COc1cccc(Br)c1`: the melting point was in the range of 40 to 42 °C.

For the compound `Clc1ccc2c(Cl)ccc(Cl)c2n1`, the melting point was 85 to 87 °C.

In the case of `Cn1c(=O)n(CC(=O)O)c2ccccc21`, the melting point was 202 to 204 °C.

For the compound `N#CCC(=O)c1ccc(Cl)cc1F`, the melting point fell in the range of 79 to 81 °C.

With `O=C(O)c1cnn(-c2ccc(F)cc2)n1`, the melting point lay in the range of 214 to 216 °C.

As for `O=S(=O)(Cl)c1ccccc1-c1ccccc1`, the melting point is 94 to 96 °C.

The compound `O=C1CCc2c(Cl)cc(Cl)cc21` displayed a melting point of 109 to 111 °C.

As to `O=C1Nc2cccc(Br)c2C1=O`, the melting point lay within 229 to 231 °C.

Turning to `O=C1Nc2cccc(I)c2C1=O`, the melting point lay within 199 to 201 °C.

Turning to `C1Cc2nn[nH]c2CN1`, the melting point fell in the range of 154 to 156 °C.

`NC(=O)NC(Cc1c[nH]c2ccccc12)C(=O)O` (configuration not stated): the melting point was in the range of 198 to 202 °C.

The compound `CCOC(=O)C1CCC(=O)NC1` (configuration not stated) showed a melting point of 66 to 68 °C.

In the case of `O=C(O)C1(c2cccc(Br)c2)CCCCC1`, the melting point was in the range of 164 to 166 °C.

Take `O=C(O)C1CCSC1` (configuration not stated): the melting point was 60 to 62 °C.

Turning to `CCN(c1ccccc1)S(=O)(=O)c1cccc(C(=O)O)c1`, the melting point was in the range of 175 to 177 °C.

Compound `O=C(O)c1cccc(S(=O)(=O)CC(F)F)c1` returned a melting point of 170 to 172 °C.

The compound `Cc1ccc(S(=O)(=O)Nc2ccc(C(=O)O)cc2)cc1C` showed a melting point of 219 to 221 °C.

Take `CCOc1ccc(C=C(C(=O)O)c2cccs2)cc1`: the melting point fell in the range of 133 to 135 °C.

For the compound `CC(C)NCCc1nc(-c2ccc(S(C)(=O)=O)cc2)c[nH]1`, the melting point lay within 264 to 266 °C.

`COc1cc(C=O)ccc1OCCC(=O)O`: the melting point lay in the range of 130 to 132 °C.

The compound `Nc1ccccc1-n1cnnn1` showed a melting point of 84 to 86 °C.

In the case of `O=C(CCl)NCC(F)(F)F`, the melting point lay in the range of 51 to 53 °C.

In the case of `O=S1(=O)CCNC(c2ccccc2)C1` (configuration not stated), the melting point is 124 to 126 °C.

Regarding `CN(C)S(=O)(=O)c1ccc2c(c1)CCN2`, the melting point lay in the range of 111 to 113 °C.

`O=C(NCc1ccco1)n1ccnc1` yielded a melting point of 145 to 147 °C.

In turn, `O=c1c(Cl)c(Cl)cnn1-c1ccc(F)cc1F` yielded a melting point of 173 to 175 °C.

As for `Nc1ccc(F)c(NS(=O)(=O)c2cccs2)c1`, the melting point is 179 to 181 °C.

Compound `Nc1nc(CN2CCCCC2)cs1` displayed a melting point of 153 to 155 °C.

`Cc1ccc(NC(=O)CCl)cc1Br` displayed a melting point of 180 to 181 °C.

For the compound `O=C(O)c1cccc2c3c([nH]c12)CCCCC3`, the melting point was in the range of 225 to 227 °C.

In the case of `O=C(O)C=C1CCSCC1`, the melting point lay within 56 to 58 °C.

Take `Cc1cccc(-n2c(C)cc(C(=O)CCl)c2C)c1`: the melting point fell in the range of 99 to 101 °C.

`O=C(c1ccc(Br)cc1)C(F)(F)F` gave a melting point of 29 to 31 °C.

As to `CCC(C)c1ccc(-n2c(S)nc3cc(Cl)ccc3c2=O)cc1` (configuration not stated), the melting point lay within 242 to 244 °C.

`O=S(=O)(c1cccc(C(F)(F)F)c1)N1CCNCC1` displayed a melting point of 100 to 110 °C.

`CC(N)c1cccc(NC(=O)c2ccccc2)c1` (configuration not stated) showed a melting point of 115 to 117 °C.

`Cc1ccoc1-c1nnc(N)s1` gave a melting point of 153 to 155 °C.

As to `CCOc1ccc2nc(NS(=O)(=O)c3cc(C(=O)O)c(Cl)cc3Cl)sc2c1`, the melting point lay within 163 to 165 °C.

In turn, `O=S(=O)(c1ccc(S)nc1)N1CCOCC1` registered a melting point of 71 to 73 °C.

For the compound `O=C(O)Cc1csc(NC(=O)c2cccc(O)c2)n1`, the melting point fell in the range of 196 to 198 °C.

Consider `Cc1oc2ccccc2c1C=O`, for which the melting point lay in the range of 69 to 71 °C.

As for `O=C(O)CN1CC(=O)NC1=O`, the melting point was in the range of 139 to 141 °C.

Regarding `O=C(CCl)c1ccc(I)cc1`, the melting point lay within 127 to 129 °C.

In turn, `CC(C)(C)NS(=O)(=O)c1ccccc1CN` gave a melting point of 131 to 133 °C.

Turning to `O=c1[nH]c2cc(F)ccc2c(=O)o1`, the melting point was in the range of 240 to 242 °C.

Take `COC(=O)CC1c2ccccc2CCN1S(C)(=O)=O` (configuration not stated): the melting point fell in the range of 103 to 105 °C.

Take `CCCCCn1cc(C(=O)O)c2ccccc21`: the melting point fell in the range of 97 to 99 °C.

In turn, `COC(=O)CNS(=O)(=O)c1ccc(Cl)nc1` displayed a melting point of 124 to 126 °C.

`Cc1ccc(C)c(C(=O)CCC(=O)O)c1` yielded a melting point of 80 to 84 °C.

For the compound `COc1cc(OC)cc(N2CCC(N)C2=O)c1` (configuration not stated), the melting point was in the range of 88 to 90 °C.

`N#Cc1ccsc1C(=O)O` yielded a melting point of 191 to 193 °C.

The compound `O=S(=O)(Nc1ccc(O)cc1)c1ccccc1` had a melting point of 156 to 158 °C.

The values are drawn from a melting point compilation (Tetko et al.).
